{"source": "patent US11020340B2", "about": "“Compositions containing natural products and use thereof for skin and hair” (Seiberg Consulting, LLC, priority 2017, dated 2021)", "test": "ROS-Glo H2O2 assay: removal or elimination of added hydrogen peroxide", "format": "biochemical", "conditions": "for microM H2O2: Table 2A calibration; for microM H2O2 / Hydrogen peroxide levels, Micro Molar H2O2: 30 minutes at room temperature; for Hydrogen peroxide levels, Micro Molar H2O2: Table 2B", "experimental": "Broken-up algae powders (two independent batches) and the prototype formulations of Table 1A were evaluated for their biological activity in the removal or elimination of hydrogen peroxide by using the ROS-Glo™ H2O2 assay kit (Promega). The ROS-Glo™ H2O2 assay is a homogeneous, rapid and sensitive luminescent assay that measures the level of hydrogen peroxide directly in cell culture or in defined reactions. This assay allows identification of conditions or test compounds, such as small molecule inhibitors or inducers that alter ROS levels. An H2O2 Substrate is employed that reacts directly with H2O2 to generate a luciferin precursor. Upon addition of ROS-Glo™ Detection Reagent containing Ultra-Glo™ Recombinant Luciferase and Cysteine, the precursor is converted to luciferin by the d-Cysteine, and the produced luciferin reacts with Ultra-Glo™ Recombinant Luciferase to generate a luminescent signal that is proportional to H2O2 concentration. In the current study H2O2 was added into the reaction wells and the H2O2-degrading activity of the test agents, at various concentrations, was evaluated after 30 minutes of exposure at room temperature. Glutathione (GSH) served as a positive control and the luminescence results (RLU) of different GSH concentrations were calibrated to hydrogen peroxide concentrations (see Table 2A).\nIn a similar study, one batch of broken-up Porphyridium powder was evaluated for the same biological activity before and after gamma irradiation. The gamma irradiation used was considered weak, and ranged from about 5 to about 15 kGy.\nA broken-up algae powder preparation was evaluated for biological activity (removal or elimination of hydrogen peroxide) using the ROS-Glo™ H2O2 assay kit (Promega), as described in Example 2. The powder was suspended in water and used “as is” (non-denatured) for the assay, or was heated to 100 C for 30 minutes to achieve a complete denaturation. Upon heating, the preparation changed its color from red/pink to yellow/green or to light yellow/colorless."}
{"smiles": "N[C@@H](CCC(=O)N[C@@H](CS)C(=O)NCC(=O)O)C(=O)O", "note": "[GSH, Glutathione]", "values": [{"measurement": "microM H2O2", "setting": "GSH 0.025 %", "result": 151.69, "unit": "µM"}, {"measurement": "microM H2O2", "setting": "GSH 0.050 %", "result": 105.32, "unit": "µM"}, {"measurement": "microM H2O2", "setting": "GSH 0.100 %", "result": 67.84, "unit": "µM"}, {"measurement": "microM H2O2", "setting": "GSH 0.200 %", "result": 45.76, "unit": "µM"}, {"measurement": "microM H2O2", "setting": "GSH 0.400 %", "result": 14.26, "unit": "µM"}, {"measurement": "microM H2O2", "setting": "GSH 0.800 %", "result": -7.13, "unit": "µM"}, {"measurement": "microM H2O2", "setting": "GSH 1.000 %", "result": -10.27, "unit": "µM"}, {"measurement": "Hydrogen peroxide levels, Micro Molar H2O2", "setting": "0.025 % test agent", "result": 139.566, "unit": "Micro Molar"}, {"measurement": "Hydrogen peroxide levels, Micro Molar H2O2", "setting": "0.050 % test agent", "result": 112.262, "unit": "Micro Molar"}, {"measurement": "Hydrogen peroxide levels, Micro Molar H2O2", "setting": "0.100 % test agent", "result": 76.093, "unit": "Micro Molar"}, {"measurement": "Hydrogen peroxide levels, Micro Molar H2O2", "setting": "0.200 % test agent", "result": 53.453, "unit": "Micro Molar"}, {"measurement": "Hydrogen peroxide levels, Micro Molar H2O2", "setting": "0.400 % test agent", "result": 25.850, "unit": "Micro Molar"}, {"measurement": "Hydrogen peroxide levels, Micro Molar H2O2", "setting": "0.800 % test agent", "result": "−6.940", "unit": "Micro Molar"}, {"measurement": "Hydrogen peroxide levels, Micro Molar H2O2", "setting": "1.000 % test agent", "result": "−8.278", "unit": "Micro Molar"}, {"measurement": "Micro Molar H2O2", "setting": "Table 2C, 0.0025 % Test/Ref", "result": 58.797, "unit": "Micro Molar"}, {"measurement": "Micro Molar H2O2", "setting": "Table 2C, 0.0050 % Test/Ref", "result": 49.344, "unit": "Micro Molar"}, {"measurement": "Micro Molar H2O2", "setting": "Table 2C, 0.0100 % Test/Ref", "result": 52.736, "unit": "Micro Molar"}, {"measurement": "Micro Molar H2O2", "setting": "Table 2C, 0.0250 % Test/Ref", "result": 41.413, "unit": "Micro Molar"}, {"measurement": "Micro Molar H2O2", "setting": "Table 2C, 0.0500 % Test/Ref", "result": 28.936, "unit": "Micro Molar"}, {"measurement": "Micro Molar H2O2", "setting": "Table 2C, 0.1000 % Test/Ref", "result": 16.548, "unit": "Micro Molar"}, {"measurement": "Micro Molar H2O2", "setting": "Table 2C, 0.2500 % Test/Ref", "result": 6.375, "unit": "Micro Molar"}, {"measurement": "Micro Molar H2O2", "setting": "Table 2C, 0.5000 % Test/Ref", "result": "−9.043", "unit": "Micro Molar"}, {"measurement": "Micro Molar H2O2", "setting": "Table 3, 0.025 % test agent", "result": 141.3439, "unit": "Micro Molar"}, {"measurement": "Micro Molar H2O2", "setting": "Table 3, 0.05 % test agent", "result": 98.16, "unit": "Micro Molar"}, {"measurement": "Micro Molar H2O2", "setting": "Table 3, 0.1 % test agent", "result": 53.43, "unit": "Micro Molar"}, {"measurement": "Micro Molar H2O2", "setting": "Table 3, 0.2 % test agent", "result": 10.87, "unit": "Micro Molar"}, {"measurement": "Micro Molar H2O2", "setting": "Table 3, 0.4 % test agent", "result": "−14.384", "unit": "Micro Molar"}, {"measurement": "Micro Molar H2O2", "setting": "Table 3, 0.8 % test agent", "result": "−14.5708", "unit": "Micro Molar"}]}
